Measured values as given in patent publication US10125168B2, “Synthetic peptide for adjusting balance between presence of type 1 TNF receptor and type 2 TNF receptor and use thereof” (TOAGOSEI CO., LTD., priority 2012, dated 2018).

Experiments:
TNF-R1 [1] = assay: Immunofluorescence / flow cytometry of TNF-R1 presence in human SK-N-SH cells supplied with peptide; assay type: cell-based; conditions: human cell line SK-N-SH, retinoic acid induction, peptide 5 μM, two days; fluorescence intensity relative to control group = 1 (FIG. 2)
Method: The activities of the respective peptides synthesized in Example 1 above were tested with cultured cells of a human neuroblastoma cell line (SK-N-SH). The control group was supplied with no peptides. The test details are described below.
Firstly, each peptide synthesized in Example 1 above was dissolved in DMSO to prepare a stock solution having a peptide concentration of 4 mM.
The SK-N-SH cell line was then seeded in a 4 mL fraction in a culture dish of 6 cm diameter at a density of 1.5×10^5 cells/mL and incubated overnight in a general DMEM culture medium (with 10% FBS (a Hyclone product, KSD), 2 mM L-glutamine, 50 unit/mL penicillin, and 50 μg/mL streptomycin) at 37° C. in a CO2 incubator at 5% CO2. Due to a low cell density, incubation was carried on for one more days.
After incubated over two nights, the culture medium was replaced with a fresh DMEM culture medium (with 2% FBS, 20 μM retinoic acid, 2 mM L-glutamine, 50 unit/mL penicillin, and 50 μg/mL streptomycin). Incubation was carried on for five days under the same conditions to effect retinoic acid induction.
Subsequently, the culture medium was replaced with a DMEM culture medium containing a peptide (TNF-R2 upregulating peptide or TNF-R2 downregulating peptide) in an amount equivalent to 5 μM, in addition to 2% FBS, 20 μM retinoic acid, 2 mM L-glutamine, 50 unit/mL penicillin and 50 μg/mL streptomycin (also containing 5 μL of DMSO at this point). Incubation was carried on under the same conditions for two days.
The control group (group supplied with no peptide) was incubated for two days in a DMEM culture medium (with 2% FBS, 20 μM retinoic acid, 20 μM retinoic acid, 2 mM L-glutamine, 50 unit/mL penicillin, and 50 μg/mL streptomycin) supplied only with the aforementioned amount of DMSO, without any added peptide.
(§1) After completion of the incubation, cultured cells in each test group were collected and divided into certain test tubes in fractions having the same number of cells. By the immunofluorescence technique described below, the change in the balance between the presence of TNF-R1 and TNF-R2 was then assessed in each test group (group supplied with TNF-R2 upregulating peptide, group supplied with TNF-R2 downregulating peptide).
More specifically, in each test group, for the TNF-R1 measurement, an anti-TNF-R1 mouse polyclonal antibody (a Santa Cruz Biotechnology Inc. product, SC-52739) was added to the respective test tubes to a final concentration of 2×10^−3 mg/mL and incubation was carried out under ice-cold conditions for a prescribed time period. As a secondary antibody, a goat anti-mouse IgG antibody (an Invitrogen product, A10029) labeled with a fluorescent dye (Alexa® 488) was added to the test tubes to a final concentration of 4×10^−3 mg/mL and incubation was carried out under ice-cold conditions for a prescribed time period.
(§2) In the same manner as Example 2 above, the fluorescence intensities of cells were measured with a flow cytometer. For both TNF-R1 and TNF-R2, the fluorescence intensities are shown as relative values with the fluorescence intensities of TNF-R1 and TNF-R2 in the control group (group supplied with no peptide) being 1, respectively.

TNF-R1 [2] = assay: Immunofluorescence / flow cytometry of TNF-R1 presence in mouse Neuro 2a cells supplied with peptide; assay type: cell-based; conditions: mouse cell line Neuro 2a, retinoic acid induction, peptide 5 μM, two days; fluorescence intensity relative to control group = 1 (FIG. 1)
Method: The activities of the peptides of Sample 1 and Sample 6 synthesized in Example 1 above were tested with cultured cells of a mouse […], neuroblastoma cell line (Neuro 2a). The control group was supplied with no peptides. The test details are described below.
Firstly, each peptide synthesized in Example 1 above was dissolved in PBS (phosphate buffered saline) to prepare a stock solution having a peptide concentration of 1 mM (with a small amount of dimethyl sulfoxide (DMSO)). […]
as §1, with “peptide). […]” for “peptide).”
as §2, with “The” for “In the same manner as Example 2 above, the”, “cytometer (a Millipore system product, Guava® easyCyte 8HT).” for “cytometer.”

Row | Sequence | presence of TNF-R1 (TNF-R1 [1]) | presence of TNF-R1 (TNF-R1 [2])
1 | MAPAALWVALVFELQLWATGHT (listed as Mus musculus) [Sample 7, TNF-R2 downregulating peptide; mouse TNF-R2 signal peptide motif, linear, 22 amino acid residues] | no significant change | 
2 | MAPVAVWAALAVGLELWAAAHA (listed as Homo sapiens) [Sample 6, TNF-R2 downregulating peptide; human TNF-R2 signal peptide motif, linear, 22 amino acid residues] | no significant change | no significant change
3 | MGLPTVPGLLLSLVLLALLMG (listed as Mus musculus) [Sample 2, TNF-R2 upregulating peptide; mouse TNF-R1 signal peptide motif, linear, 21 amino acid residues] | no significant change | 
4 | MGLSTVPDLLLPLVLLELLVG (listed as Homo sapiens) [Sample 1, TNF-R2 upregulating peptide; human TNF-R1 signal peptide motif, linear, 21 amino acid residues] | no significant change | no significant change
5 | MGLSTVPGLLLPLVLRALLVD (listed as Sus scrofa) [Sample 5, TNF-R2 upregulating peptide; pig TNF-R1 signal peptide motif, linear, 21 amino acid residues] | no significant change | 
